Experimental data: ChEMBL document CHEMBL1759957, “Synthesis and antibacterial evaluation of novel 8-fluoro Norfloxacin derivatives as potential probes for methicillin and vancomycin-resistant Staphylococcus aureus” (2011)
In brackets after ≈: the same amount, converted by molar mass.

Assays:
Assay in all cases: microbe, parasite or virus in culture
Type in all cases: functional
[1] = tested on: Staphylococcus aureus; conditions: ATCC 25923, 24 h
Description: Antibacterial activity against methicillin- resistant Staphylococcus aureus ATCC 25923 after 24 hrs by spectrophotometry

[2] = tested on: Staphylococcus aureus; conditions: ATCC 29213, 24 h
Description: Antibacterial activity against methicillin- resistant and vancomycin resistant Staphylococcus aureus ATCC 29213 after 24 hrs by spectrophotometry

[3] = tested on: Klebsiella pneumoniae; conditions: ATCC 27736, 24 h
Description: Antibacterial activity against Klebsiella pneumoniae ATCC 27736 after 24 hrs by spectrophotometry

Row | SMILES | MIC [1] | MIC [2] | MIC [3]
1 | CCn1cc(C(=O)O)c(=O)c2cc(F)c(N3CCN(Cc4ccccc4)CC3)c(F)c21 | 0.19 µg/mL (≈ 0.444 µM) | 0.19 µg/mL (≈ 0.444 µM) | 0.011 µg/mL (≈ 0.0257 µM)
2 | CCn1cc(C(=O)O)c(=O)c2cc(F)c(N3CCN(c4ccccc4)CC3)c(F)c21 | 0.39 µg/mL (≈ 0.943 µM) | 0.09 µg/mL (≈ 0.218 µM) | 0.09 µg/mL (≈ 0.218 µM)
3 | CCn1cc(C(=O)O)c(=O)c2cc(F)c(N3CCOCC3)c(F)c21 | 0.022 µg/mL (≈ 0.065 µM) | 0.045 µg/mL (≈ 0.133 µM) | 0.022 µg/mL (≈ 0.065 µM)
4 | CCn1cc(C(=O)O)c(=O)c2cc(F)c(N3CCCCC3)c(F)c21 | 0.19 µg/mL (≈ 0.565 µM) | 0.39 µg/mL (≈ 1.16 µM) | 0.19 µg/mL (≈ 0.565 µM)
5 | CCN1CCN(c2c(F)cc3c(=O)c(C(=O)O)cn(CC)c3c2F)CC1 | 0.78 µg/mL (≈ 2.13 µM) | 0.39 µg/mL (≈ 1.07 µM) | 0.19 µg/mL (≈ 0.52 µM)
6 | CCn1cc(C(=O)O)c(=O)c2cc(F)c(NCCN3CCOCC3)c(F)c21 | 3.12 µg/mL (≈ 8.18 µM) |  | 1.56 µg/mL (≈ 4.09 µM)
7 | CCn1cc(C(=O)O)c(=O)c2cc(F)c(NCCCN3CCOCC3)c(F)c21 | 3.12 µg/mL (≈ 7.89 µM) |  | 1.56 µg/mL (≈ 3.95 µM)
8 | CCCCNc1c(F)cc2c(=O)c(C(=O)O)cn(CC)c2c1F | 0.39 µg/mL (≈ 1.2 µM) | 0.39 µg/mL (≈ 1.2 µM) | 0.022 µg/mL (≈ 0.0678 µM)
9 | CCn1cc(C(=O)O)c(=O)c2cc(F)c(NC(C)(C)C)c(F)c21 | 12.5 µg/mL (≈ 38.5 µM) |  | 0.09 µg/mL (≈ 0.277 µM)
10 | CCCNc1c(F)cc2c(=O)c(C(=O)O)cn(CC)c2c1F | 12.5 µg/mL (≈ 40.3 µM) |  | 0.78 µg/mL (≈ 2.51 µM)
11 | CCn1cc(C(=O)O)c(=O)c2cc(F)c(NC(C)C)c(F)c21 | 0.78 µg/mL (≈ 2.51 µM) | 0.78 µg/mL (≈ 2.51 µM) | 0.09 µg/mL (≈ 0.29 µM)
12 | O=C(O)c1cn(Cc2ccc(C(F)(F)F)cc2)c2c(F)c(N3CCOCC3)c(F)cc2c1=O | 12.5 µg/mL (≈ 26.7 µM) |  | 12.5 µg/mL (≈ 26.7 µM)
13 | O=C(O)c1cn(Cc2ccc(C(F)(F)F)cc2)c2c(F)c(N3CCCCC3)c(F)cc2c1=O | > 50 µg/mL |  | 12.5 µg/mL (≈ 26.8 µM)
14 | O=C(O)c1cn(Cc2ccc(C(F)(F)F)cc2)c2c(F)c(N3CCNCC3)c(F)cc2c1=O | > 50 µg/mL |  | 12.5 µg/mL (≈ 26.7 µM)
15 | CN1CCN(c2c(F)cc3c(=O)c(C(=O)O)cn(Cc4ccc(C(F)(F)F)cc4)c3c2F)CC1 | > 50 µg/mL |  | > 50 µg/mL
16 | CCN1CCN(c2c(F)cc3c(=O)c(C(=O)O)cn(Cc4ccc(C(F)(F)F)cc4)c3c2F)CC1 | > 50 µg/mL |  | > 50 µg/mL

Row | SMILES | MIC [1] | MIC [2] | MIC [3]
17 | O=C(O)c1cn(Cc2ccc(C(F)(F)F)cc2)c2c(F)c(N3CCN(c4ccccc4)CC3)c(F)cc2c1=O | 0.78 µg/mL (≈ 1.44 µM) | 1.56 µg/mL (≈ 2.87 µM) | 0.39 µg/mL (≈ 0.718 µM)
18 | O=C(O)c1cn(Cc2ccc(C(F)(F)F)cc2)c2c(F)c(N3CCN(Cc4ccccc4)CC3)c(F)cc2c1=O | 1.56 µg/mL (≈ 2.8 µM) |  | 1.56 µg/mL (≈ 2.8 µM)
19 | O=C(O)c1cn(Cc2ccc(C(F)(F)F)cc2)c2c(F)c(NCCN3CCOCC3)c(F)cc2c1=O | > 50 µg/mL |  | 12.5 µg/mL (≈ 24.4 µM)
20 | O=C(O)c1cn(Cc2ccc(C(F)(F)F)cc2)c2c(F)c(NCCCN3CCOCC3)c(F)cc2c1=O | > 50 µg/mL |  | 25 µg/mL (≈ 47.6 µM)
21 | CCCCNc1c(F)cc2c(=O)c(C(=O)O)cn(Cc3ccc(C(F)(F)F)cc3)c2c1F | > 50 µg/mL |  | > 50 µg/mL
22 | CC(C)(C)Nc1c(F)cc2c(=O)c(C(=O)O)cn(Cc3ccc(C(F)(F)F)cc3)c2c1F | > 50 µg/mL |  | > 50 µg/mL
23 | CCCNc1c(F)cc2c(=O)c(C(=O)O)cn(Cc3ccc(C(F)(F)F)cc3)c2c1F | 1.56 µg/mL (≈ 3.54 µM) |  | 3.12 µg/mL (≈ 7.08 µM)
24 | CC(C)Nc1c(F)cc2c(=O)c(C(=O)O)cn(Cc3ccc(C(F)(F)F)cc3)c2c1F | 3.12 µg/mL (≈ 7.08 µM) |  | 1.56 µg/mL (≈ 3.54 µM)
25 | CCn1cc(C(=O)O)c(=O)c2cc(F)c(N3CCN(c4nc(N5CCOCC5)nc(N5CCOCC5)n4)CC3)c(F)c21 | 3.12 µg/mL (≈ 5.32 µM) |  | 3.12 µg/mL (≈ 5.32 µM)
26 | CCn1cc(C(=O)O)c(=O)c2cc(F)c(N3CCN(c4nc(N5CCCCC5)nc(N5CCCCC5)n4)CC3)c(F)c21 | > 50 µg/mL |  | > 50 µg/mL
27 | CCn1cc(C(=O)O)c(=O)c2cc(F)c(N3CCN(c4nc(N5CCN(C)CC5)nc(N5CCN(C)CC5)n4)CC3)cc21 | 0.39 µg/mL (≈ 0.656 µM) | 0.39 µg/mL (≈ 0.656 µM) | 0.39 µg/mL (≈ 0.656 µM)
28 | CCn1cc(C(=O)O)c(=O)c2cc(F)c(N3CCN(c4nc(NCCN5CCOCC5)nc(NCCN5CCOCC5)n4)CC3)c(F)c21 | 0.78 µg/mL (≈ 1.16 µM) | 1.56 µg/mL (≈ 2.32 µM) | 0.78 µg/mL (≈ 1.16 µM)
29 | CCn1cc(C(=O)O)c(=O)c2cc(F)c(N3CCN(c4nc(NCCCN5CCOCC5)nc(NCCCN5CCOCC5)n4)CC3)c(F)c21 | 12.5 µg/mL (≈ 17.8 µM) |  | 12.5 µg/mL (≈ 17.8 µM)
30 | CCCCNc1nc(NCCCC)nc(N2CCN(c3c(F)cc4c(=O)c(C(=O)O)cn(CC)c4c3F)CC2)n1 | 0.39 µg/mL (≈ 0.698 µM) | 0.39 µg/mL (≈ 0.698 µM) | 0.39 µg/mL (≈ 0.698 µM)
31 | CCn1cc(C(=O)O)c(=O)c2cc(F)c(N3CCN(c4nc(NC(C)(C)C)nc(NC(C)(C)C)n4)CC3)c(F)c21 | 3.12 µg/mL (≈ 5.59 µM) |  | 0.39 µg/mL (≈ 0.698 µM)
